US6723710B2, “Compositions for inhibiting arginase activity” (The Trustees of the University of Pennsylvania, priority 1997, dated 2004)
“Also recorded” adds a separate entry of the source.

Key:
[1] = target: T1, NO synthase (Homo sapiens, UniProt P29475); assay: Nitric Oxide Synthase-ABHA assay (NO2-/NO3- production); assay type: biochemical; conditions: 0.1 millimolar or 1.0 millimolar ABHA
T1 construct: purchased Biomol
Source text: NADPH, FAD, FMN, L-arginine, N-(2-hydroxyethyl)piperazine-N-2-ethanesulfonic acid (HEPES) (6R)-5,6,7,8-tetrahydro-L-biopterin (BH4), aminoguanidine, CaCl2, and phosphodiesterase cyclic nucleotide activator (calmodulin) were purchased from Sigma Chemical Company (St. Louis, Mo.). Neuronal NO synthase was purchased from Biomol, dialyzed to remove beta-mercaptoethanol, and concentrated to 0.1 milligram per milliliter. The nitric oxide synthase colorimetric assay kit was purchased from Calbiochem. Materials were used without further purification. The effect of ABHA on NO synthesis was assayed by monitoring the sum of NO2^− and NO3^− production, as described (Verdon et al., 1995, Anal. Biochem. 224:502-508). The enzyme solution was shaken at 37° C. for 15 minutes with 50 millimolar HEPES (pH 7.5), 100 micromolar NADPH, 4 micromolar FAD, 4 micromolar FMN, 6 micromolar BH4, 100 micromolar L-arginine, 0.0-1.0 millimolar ABHA, and 0.02 milligram per milliliter NO synthase in a final volume of 100 microliters. For experiments in which neuronal NO synthase was used, 1 millimolar CaCl2 and 100 micrograms per milliliter calmodulin were also added. Reactions were stopped by incubating the reaction mixture at 100° C. for 3 minutes. […] Absorbance at 540 nanometers was used to quantify the extent of NOx production.

[2] = target: T2, arginase (Rattus norvegicus, UniProt P07824); assay: isothermal titration calorimetry; assay type: binding; set-up: made in house
T2 sequence (P07824 1-323): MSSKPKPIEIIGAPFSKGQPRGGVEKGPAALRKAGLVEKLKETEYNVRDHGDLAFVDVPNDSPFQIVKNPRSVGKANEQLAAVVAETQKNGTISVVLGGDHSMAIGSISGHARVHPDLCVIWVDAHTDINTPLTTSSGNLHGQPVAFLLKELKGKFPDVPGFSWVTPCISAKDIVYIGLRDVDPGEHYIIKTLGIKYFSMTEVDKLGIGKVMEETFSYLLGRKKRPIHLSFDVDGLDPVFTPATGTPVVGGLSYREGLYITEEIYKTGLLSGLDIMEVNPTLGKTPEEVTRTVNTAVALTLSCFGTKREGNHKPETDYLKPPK
Experimental: All calorimetry experiments were conducted on a MCS isothermal calorimeter from MicroCal, Inc. (Northampton, Mass.). Arginase was exhaustively dialyzed against a solution comprising 100 micromolar MnCl2 and 50 millimolar bicine-NaOH (pH 8.5). […] Prior to the titration experiment, samples were de-gassed under vacuum for 5 minutes. […] The contents of the sample cell were titrated with 30-40 aliquots (2.5 microliters each) of inhibitor (an initial 1 microliters injection was made, but not used in data analysis). After each injection, the heat change was measured and converted to the corresponding enthalpy value. The reaction mixture was continuously stirred at 400 rotations per minute during titration. Control experiments were carried out by titrating the inhibitor into the buffer solution under identical experimental conditions. Data analysis was performed using ORIGIN™ software provided with the instrument. The calorimetric data are presented with the background titrations subtracted from the experimental data. The amount of heat produced per injection was calculated by integration of the area under each peak. The data were fit to the following equation, […]

[3] = target: T2, arginase; assay: dialysis/dilution reversibility experiments with pre-incubated arginase-inhibitor complex; assay type: biochemical; set-up: made in house
Experimental: Dialysis experiments of arginase with the arginase-compound 7 and arginase-compound 15 complexes were performed in following way. Thirty microliters of arginase at a concentration of 11.2 milligrams per milliliter were pre-incubated for thirty minutes with an appropriate concentration of compound 7 (5 microliters of 100 micromolar stock solution). […] Pre-incubates were then added to bicine buffer containing 4 millimolar compound 18. The final volume of the assay reaction solution was 1 milliliter.

T1 sequence (P29475 whole entry): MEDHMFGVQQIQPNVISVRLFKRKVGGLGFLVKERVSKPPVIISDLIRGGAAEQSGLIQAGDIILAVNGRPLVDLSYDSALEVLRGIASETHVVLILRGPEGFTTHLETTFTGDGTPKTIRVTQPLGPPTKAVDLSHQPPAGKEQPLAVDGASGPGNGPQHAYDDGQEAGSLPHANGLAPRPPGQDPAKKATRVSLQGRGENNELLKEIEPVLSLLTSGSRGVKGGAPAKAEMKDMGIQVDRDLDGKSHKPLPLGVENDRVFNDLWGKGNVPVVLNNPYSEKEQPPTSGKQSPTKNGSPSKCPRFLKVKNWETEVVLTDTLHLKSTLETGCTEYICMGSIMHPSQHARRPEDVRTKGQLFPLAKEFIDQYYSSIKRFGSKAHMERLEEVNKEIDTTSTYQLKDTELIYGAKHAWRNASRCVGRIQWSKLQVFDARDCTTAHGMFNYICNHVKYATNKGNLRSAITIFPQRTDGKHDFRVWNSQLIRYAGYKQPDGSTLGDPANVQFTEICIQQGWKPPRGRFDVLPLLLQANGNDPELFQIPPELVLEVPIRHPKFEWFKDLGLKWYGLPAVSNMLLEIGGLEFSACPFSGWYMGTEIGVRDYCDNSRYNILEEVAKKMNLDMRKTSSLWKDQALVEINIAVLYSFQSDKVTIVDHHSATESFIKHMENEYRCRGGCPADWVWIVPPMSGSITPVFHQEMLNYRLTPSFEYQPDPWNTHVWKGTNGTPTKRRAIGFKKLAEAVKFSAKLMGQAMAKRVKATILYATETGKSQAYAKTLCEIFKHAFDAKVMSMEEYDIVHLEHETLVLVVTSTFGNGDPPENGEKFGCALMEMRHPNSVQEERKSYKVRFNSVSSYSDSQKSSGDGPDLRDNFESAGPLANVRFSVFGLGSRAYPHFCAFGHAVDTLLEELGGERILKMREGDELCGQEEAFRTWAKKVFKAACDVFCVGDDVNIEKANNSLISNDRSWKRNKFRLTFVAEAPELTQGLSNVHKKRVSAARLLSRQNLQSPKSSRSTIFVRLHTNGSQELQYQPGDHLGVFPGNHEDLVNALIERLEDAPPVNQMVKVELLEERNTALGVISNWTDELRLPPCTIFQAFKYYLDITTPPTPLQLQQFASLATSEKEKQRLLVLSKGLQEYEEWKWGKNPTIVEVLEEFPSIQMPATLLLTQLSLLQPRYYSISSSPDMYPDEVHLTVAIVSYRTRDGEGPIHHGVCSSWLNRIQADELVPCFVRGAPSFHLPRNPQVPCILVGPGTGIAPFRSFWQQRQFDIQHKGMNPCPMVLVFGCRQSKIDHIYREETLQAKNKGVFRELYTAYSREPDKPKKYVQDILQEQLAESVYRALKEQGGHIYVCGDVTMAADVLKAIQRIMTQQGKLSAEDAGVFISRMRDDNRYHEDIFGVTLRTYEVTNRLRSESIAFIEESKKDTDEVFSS

N[C@@H](CCCCB(O)O)C(=O)O [compound 7, 2(S)-amino-6-boronohexanoic acid]
inhibition of NO synthase [1]: does not inhibit NO synthase; also recorded: no inhibition
Kd ([2]; 100 micromolar MnCl2, 50 millimolar bicine pH 8.5, 25° C., read-out: Kd determined by titration calorimetry): 110 nM
association constant (Ka) ([2]; pH 8.5, 25° C.): 8.89×10^6 inverse molar
enthalpy change (ΔH) of binding ([2]; pH 8.5, 25° C.): −12.97 kilocalories per mole
stoichiometry (n), moles bound per mole of arginase monomer ([2]; pH 8.5, 25° C.): 1.07
inhibited velocity, control without pre-incubation ([3]; 9.6 micromolar arginase, 0.5 micromolar ABHA): 0.47 micromolar per minute
reversibility of inhibition ([3]; 30 minutes pre-incubation): reversible inhibitor
observed inhibited velocity, diluted pre-incubate ([3]; 30 minutes pre-incubation, diluted to 0.5 micromolar ABHA and 9.6 micromolar arginase): 0.46 micromolar per minute
reversibility of inhibition ([3]; 30 minutes pre-incubation, listed as ABHA): completely instantaneous reversible inhibition
